Experiment [1] relates to Escherichia coli. The experiment in a line: Antimicrobial activity against Escherichia coli ATCC 35218 expressing TEM-1 beta lactamases after 18 to 20 hrs by microbroth dilution method. The format is functional.
Experiment [2] relates to Klebsiella pneumoniae. Nature of the experiment: Antimicrobial activity against Klebsiella pneumoniae ATCC 33495 after 18 to 20 hrs by microbroth dilution method. The format is functional.
A further experiment has as its system Proteus mirabilis. Nature of the experiment: Antimicrobial activity against Proteus mirabilis ATCC 25933 after 18 to 20 hrs by microbroth dilution method. The format is functional.
The subject of experiment [3] is Escherichia coli. Nature of the experiment: Antimicrobial activity against Escherichia coli isolate SJ 3 after 18 to 20 hrs by microbroth dilution method. The format is functional. For orientation: Broth dilution looks for growth in wells or tubes with falling amounts of substance.
The test system of experiment [4] is Escherichia coli. Nature of the experiment: Induction of proton motive force collapse in Escherichia coli BW25113 at 100 uM by flow cytometry. The format is functional, organism-based.
For experiment [5], the system named is Escherichia coli. The experiment in a line: Antimicrobial activity against Escherichia coli ATCC 25922 after 18 to 20 hrs by microbroth dilution method. The format is functional.
The test system of experiment [6] is Klebsiella pneumoniae. Nature of the experiment: Antimicrobial activity against Klebsiella pneumoniae isolate SJ 4 after 18 to 20 hrs by microbroth dilution method. The format is functional.
A further experiment deals with Acinetobacter baumannii. The experiment in a line: Antimicrobial activity against Acinetobacter baumannii ATCC 19606 after 18 to 20 hrs by microbroth dilution method. The format is functional. The note with it: ATCC 19606 = CIP 70.34 = JCM 6841.
The subject of experiment [7] is Escherichia coli. The experiment in a line: Antimicrobial activity against Escherichia coli BW25113 after 18 to 20 hrs by microbroth dilution method. The format is functional.
Experiment [8] relates to Klebsiella pneumoniae. Nature of the experiment: Antimicrobial activity against Klebsiella pneumoniae isolate SJ 3 after 18 to 20 hrs by microbroth dilution method. The format is functional.
Experiment [9] concerns Escherichia coli. Nature of the experiment: Antimicrobial activity against Escherichia coli isolate SJ 2 after 18 to 20 hrs by microbroth dilution method. The format is functional.
For experiment [10], the system named is Escherichia coli. Nature of the experiment: Antimicrobial activity against tolC deficient Escherichia coli JW5503-1 after 18 to 20 hrs by microbroth dilution method. The format is functional.
For experiment [11], the system named is Escherichia coli. Nature of the experiment: Antimicrobial activity against Escherichia coli isolate SJ 6 after 18 to 20 hrs by microbroth dilution method. The format is functional.
The test system of experiment [12] is Escherichia coli. Nature of the experiment: Antimicrobial activity against Escherichia coli isolate SJ 4 after 18 to 20 hrs by microbroth dilution method. The format is functional.
The subject of experiment [13] is Klebsiella pneumoniae. Nature of the experiment: Antimicrobial activity against Klebsiella pneumoniae isolate SJ 2 after 18 to 20 hrs by microbroth dilution method. The format is functional.
The test system of experiment [14] is Escherichia coli. Nature of the experiment: Antimicrobial activity against Escherichia coli isolate SJ 1 after 18 to 20 hrs by microbroth dilution method. The format is functional.
For a further experiment, the system named is Pseudomonas aeruginosa. Nature of the experiment: Antimicrobial activity against Pseudomonas aeruginosa PAO1 after 18 to 20 hrs by microbroth dilution method. The format is functional.
Experiment [15] has as its system Escherichia coli. Nature of the experiment: Antimicrobial activity against Escherichia coli isolate SJ 5 after 18 to 20 hrs by microbroth dilution method. The format is functional.
The test system of experiment [16] is Klebsiella pneumoniae. Nature of the experiment: Antimicrobial activity against Klebsiella pneumoniae isolate SJ 5 after 18 to 20 hrs by microbroth dilution method. The format is functional.
The test system of experiment [17] is Klebsiella pneumoniae. The experiment in a line: Antimicrobial activity against Klebsiella pneumoniae isolate SJ 1 after 18 to 20 hrs by microbroth dilution method. The format is functional.
The test system of the next experiment is Enterobacter cloacae. Nature of the experiment: Antimicrobial activity against Enterobacter cloacae ATCC 13047 after 18 to 20 hrs by microbroth dilution method. The format is functional. The note with it: subsp. cloacae ATCC 13047.
The next experiment concerns Enterococcus faecalis. Nature of the experiment: Antimicrobial activity against Enterococcus faecalis ATCC 33186 after 18 to 20 hrs by microbroth dilution method. The format is functional.
Another experiment relates to Streptococcus pyogenes. Nature of the experiment: Antimicrobial activity against Streptococcus pyogenes ATCC 700294 after 18 to 20 hrs by microbroth dilution method. The format is functional. The following applies: M1 GAS.
Experiment [18] relates to Staphylococcus aureus. The experiment in a line: Antimicrobial activity against methicillin-susceptible Staphylococcus aureus NRS70 after 18 to 20 hrs by microbroth dilution method. The format is functional.
For another experiment, the system named is Streptococcus pneumoniae. The experiment in a line: Antimicrobial activity against Streptococcus pneumoniae R6 after 18 to 20 hrs by microbroth dilution method. The format is functional.
The subject of experiment [19] is Stenotrophomonas maltophilia. The experiment in a line: Antimicrobial activity against Stenotrophomonas maltophilia ATCC 700475 after 18 to 20 hrs by microbroth dilution method. The format is functional.
The next experiment concerns Bacillus anthracis. Nature of the experiment: Antimicrobial activity against Bacillus anthracis Sterne 34F2 after 18 to 20 hrs by microbroth dilution method. The format is functional.
Experiment [20] relates to Staphylococcus aureus. The experiment in a line: Antimicrobial activity against methicillin-susceptible Staphylococcus aureus ATCC 29213 after 18 to 20 hrs by microbroth dilution method. The format is functional.
The test system of a further experiment is Bacillus cereus. Nature of the experiment: Antimicrobial activity against Bacillus cereus ATCC 14579 after 18 to 20 hrs by microbroth dilution method. The format is functional.
The next experiment deals with Bacillus subtilis. The experiment in a line: Antimicrobial activity against Bacillus subtilis ATCC 23857 after 18 to 20 hrs by microbroth dilution method. The format is functional.
The test system of experiment [21] is Staphylococcus aureus. The experiment in a line: Potency index, ratio of cefaclor MIC to compound MIC for […] Staphylococcus aureus ATCC 29213. The format is functional.
In experiment [22] the test system is Staphylococcus aureus. Nature of the experiment: Potency index, ratio of cefaclor MIC to compound MIC for methicillin-resistant Staphylococcus aureus NRS70. The format is functional.
The test system of experiment [23] is Staphylococcus aureus. The experiment in a line: Potency index, ratio of […] MIC to compound MIC for […] Staphylococcus aureus ATCC 29213. The format is functional.
The test system of experiment [24] is Staphylococcus aureus. The experiment in a line: Potency index, ratio of […] MIC to compound MIC for methicillin-resistant Staphylococcus aureus NRS70. The format is functional.

In brackets after ≈: the same amount, converted by molar mass. Activity calls are given as the source filed them. The calls are words filed in the database; no cut-off is given here.

Broadly, the MIC is the least concentration at which growth counts as inhibited. A high value points to a need for much substance.

With `CO[C@@]1(NC(=O)CCCC(=O)C2=C(O)[C@@H](CCC(=O)O)NC2=O)C(=O)N2C(C(=O)O)=C(CSc3nnnn3C)CS[C@@H]21`, the MIC against Escherichia coli [1] is 50 µg/mL (≈ 79.9 µM); in the experiment on Klebsiella pneumoniae [2] it was 200 µg/mL (≈ 320 µM); in the experiment with Proteus mirabilis it was 50 µg/mL (≈ 79.9 µM); against Escherichia coli [3], 200 µg/mL (≈ 320 µM); in the experiment on Escherichia coli [5], 200 µg/mL (≈ 320 µM); in the experiment with Klebsiella pneumoniae [6], 100 µg/mL (≈ 160 µM). The MIC against Acinetobacter baumannii is > 200 µg/mL; against Escherichia coli [7], 200 µg/mL (≈ 320 µM); against Klebsiella pneumoniae [8], 200 µg/mL (≈ 320 µM); against Escherichia coli [9], 200 µg/mL (≈ 320 µM); against Escherichia coli [10] it was 200 µg/mL (≈ 320 µM); in the experiment on Escherichia coli [11] it was > 200 µg/mL. Moreover, the MIC against Escherichia coli [12] was > 200 µg/mL; in the experiment with Klebsiella pneumoniae [13], 25 µg/mL (≈ 40 µM); against Escherichia coli [14], 200 µg/mL (≈ 320 µM); in the experiment on Pseudomonas aeruginosa it was > 200 µg/mL; against Escherichia coli [15], > 200 µg/mL; in the experiment with Klebsiella pneumoniae [16], > 200 µg/mL. This molecule also yielded an MIC in the experiment with Klebsiella pneumoniae [17] of 100 µg/mL (≈ 160 µM). The outcome in the experiment with Escherichia coli [4] was inactive.

`N[C@@H](C(=O)N[C@@H]1C(=O)N2C(C(=O)O)=C(Cl)CS[C@H]12)c1ccccc1` [CEFACLOR ANHYDROUS]: the MIC against Enterobacter cloacae was > 200 µg/mL; against Escherichia coli [1] it was 50 µg/mL (≈ 136 µM); in the experiment with Enterococcus faecalis, 25 µg/mL (≈ 68 µM); against Klebsiella pneumoniae [2], 1.56 µg/mL (≈ 4.24 µM); with Streptococcus pyogenes, 0.39 µg/mL (≈ 1.06 µM); in the experiment with Staphylococcus aureus [18], 100 µg/mL (≈ 272 µM). Moreover, the MIC in the experiment on Streptococcus pneumoniae is 0.78 µg/mL (≈ 2.12 µM); in experiment [19], > 200 µg/mL; against Proteus mirabilis, 3.13 µg/mL (≈ 8.51 µM); in the experiment with Bacillus anthracis it was 0.39 µg/mL (≈ 1.06 µM); in the experiment on Escherichia coli [3] it was 12.5 µg/mL (≈ 34 µM); in the experiment on Escherichia coli [5] it was 12.5 µg/mL (≈ 34 µM). Moreover, the MIC against Klebsiella pneumoniae [6] was 1.56 µg/mL (≈ 4.24 µM); with Acinetobacter baumannii it was 200 µg/mL (≈ 544 µM); in the experiment on Staphylococcus aureus [20] it was 1.56 µg/mL (≈ 4.24 µM); in the experiment on Bacillus cereus it was > 200 µg/mL; with Escherichia coli [7], 6.25 µg/mL (≈ 17 µM); with Klebsiella pneumoniae [8], 1.56 µg/mL (≈ 4.24 µM). Also, the MIC was 200 µg/mL (≈ 544 µM) in the experiment with Escherichia coli [9]; 6.25 µg/mL (≈ 17 µM) in the experiment on Escherichia coli [10]; < 0.2 µg/mL with Bacillus subtilis; > 200 µg/mL with Escherichia coli [11]; > 200 µg/mL with Escherichia coli [12]; 1.56 µg/mL (≈ 4.24 µM) against Klebsiella pneumoniae [13]. The minimum inhibitory concentration (MIC) in the experiment with Escherichia coli [14] was 50 µg/mL (≈ 136 µM); against Pseudomonas aeruginosa it was > 200 µg/mL; in the experiment with Escherichia coli [15], 50 µg/mL (≈ 136 µM); with Klebsiella pneumoniae [16], > 200 µg/mL; in the experiment with Klebsiella pneumoniae [17], 200 µg/mL (≈ 544 µM).

Turning to `C=CC1=C(C(=O)O)N2C(=O)[C@@H](NC(=O)CCNC(=O)C3=C(O)C(CC(C)C)NC3=O)[C@H]2SC1` (stereo partly drawn), the MIC in the experiment with Enterobacter cloacae is > 200 µg/mL; against Enterococcus faecalis, > 200 µg/mL; against Klebsiella pneumoniae [2] it was > 200 µg/mL; in the experiment on Streptococcus pyogenes it was 12.5 µg/mL (≈ 26.1 µM); against Staphylococcus aureus [18] it was 3.13 µg/mL (≈ 6.54 µM); in the experiment on Streptococcus pneumoniae it was 6.25 µg/mL (≈ 13.1 µM). The MIC in [19] is > 200 µg/mL; against Proteus mirabilis, 100 µg/mL (≈ 209 µM); in the experiment with Bacillus anthracis, 6.25 µg/mL (≈ 13.1 µM); in the experiment on Acinetobacter baumannii, > 200 µg/mL; against Staphylococcus aureus [20], 3.13 µg/mL (≈ 6.54 µM); in the experiment on Bacillus cereus, > 200 µg/mL. Also, the MIC was > 200 µg/mL in the experiment on Escherichia coli [7], > 200 µg/mL in the experiment on Escherichia coli [10], 6.25 µg/mL (≈ 13.1 µM) with Bacillus subtilis and > 200 µg/mL against Pseudomonas aeruginosa. Further, the Ratio amounted to 32 with Staphylococcus aureus [21], 32 in the experiment with Staphylococcus aureus [22], 64 in the experiment on Staphylococcus aureus [23] and 64 with Staphylococcus aureus [24].

As for `CO[C@@]1(NC(=O)C2SC(=C(C(N)=O)C(=O)O)S2)C(=O)N2C(C(=O)O)=C(CSc3nnnn3C)CS[C@@H]21` (stereo partly drawn) [CEFOTETAN], the MIC is < 0.2 µg/mL against Escherichia coli [1]; < 0.2 µg/mL in the experiment with Klebsiella pneumoniae [2]; < 0.2 µg/mL against Proteus mirabilis; 0.78 µg/mL (≈ 1.36 µM) against Escherichia coli [3]; 1.56 µg/mL (≈ 2.71 µM) in the experiment with Escherichia coli [5]; 0.39 µg/mL (≈ 0.678 µM) against Klebsiella pneumoniae [6]. In addition, the MIC against Acinetobacter baumannii stood at 100 µg/mL (≈ 174 µM); with Escherichia coli [7], 25 µg/mL (≈ 43.4 µM); against Klebsiella pneumoniae [8], 0.39 µg/mL (≈ 0.678 µM); in the experiment with Escherichia coli [9], 1.56 µg/mL (≈ 2.71 µM); with Escherichia coli [10] it was 1.56 µg/mL (≈ 2.71 µM); against Escherichia coli [11], 25 µg/mL (≈ 43.4 µM). In addition, the MIC with Escherichia coli [12] is 1.56 µg/mL (≈ 2.71 µM); in the experiment on Klebsiella pneumoniae [13] it was < 0.2 µg/mL; in the experiment with Escherichia coli [14], 0.39 µg/mL (≈ 0.678 µM); against Pseudomonas aeruginosa, > 200 µg/mL; against Escherichia coli [15] it was 12.5 µg/mL (≈ 21.7 µM); in the experiment with Klebsiella pneumoniae [16] it was 1.56 µg/mL (≈ 2.71 µM). In the experiment on Klebsiella pneumoniae [17], the MIC is < 0.2 µg/mL.

(Values after ChEMBL document CHEMBL4229518, “New β-lactam - Tetramic acid hybrids show promising antibacterial activities” (Bioorg Med Chem Lett, 2018).)
